Measured values as given in publication PMC11098465, “A comparative analysis of peptide-delivered antisense antibiotics using diverse nucleotide mimics” (RNA, 2024).
Where “and” joins values, the source holds several entries; their conditions need not be identical. Equal values may be shown once.

Columns and labels:
[1] = test system: 10 nt long target mRNA (acpP, fully complementary 10mer RNA fragment); assay: Thermal UV melting curves of ASO:RNA duplexes; assay type: binding, Salmonella; details: unconjugated ASO and 10 nt target RNA, 2 µM each mixed 1:1; 100 mM NaCl, 10 mM phosphate, pH 7.0; UV 260 nm, 10-90°C at 0.5°C/min, five ramps; two-state fit
Description: Next, we assessed the melting temperatures of each ASO:RNA duplex across a temperature range of 10°C–90°C (Fig. 3A; Supplemental Fig. S3). In this experiment, we used a fully complementary 10mer RNA fragment instead of the 40 nt long target RNA sequence, because the longer target might form internal secondary structures that could interfere with the measurement of the melting temperature. […] This is in line with previous observations ([Freier and Altmann 1997]) and our EMSA results (Fig. 2). […] The melting temperature of RNA-F and RNA-MOE was around 56°C (Table 1).
Three hundred microliters of 10 nt long target mRNA (2 µM) was mixed with 300 µL of each of the ASOs (2 µM) in phosphate buffer (100 mM NaCl, 10 mM phosphate, pH 7.0). Thermal UV melting curves were recorded at Agilent Cary UV–Vis Multicell Peltier. Before measurement, the samples were overlaid with silicon oil to prevent evaporation during heating. Five temperature ramps with a heating/cooling rate of 0.5°C/min between 10°C and 90°C at 260 nm were collected. All the melting curves were plotted using OriginPro 2023, fit to a two-state transition model with upper and lower baselines to determine Tm as previously reported ([Dietzsch et al. 2022]).

[2] = test system: acpP::gfp reporter transcript; assay: In vitro translation of acpP::gfp reporter (PURExpress) with western blot; assay type: biochemical, Salmonella; set-up: key to Inhibition of translation in vitro: +++: Effect strength is represented by additional (+) signs.; ++: Effect strength is represented by additional (+) signs.; Effect strength is represented by additional (+) signs; details: unconjugated ASO; for Inhibition of in vitro translation of acpP::gfp (in words): western blot of AcpP(1–17)::GFP; for Inhibition of translation in vitro: ASO:RNA 0.6:1 to 5:1, 100 nM RNA, 2 h 37°C, summary grade
Description: As a next step, we used a cell-free in vitro translation system ([Popella et al. 2022]) to investigate whether ASO binding to mRNA leads to a block in protein synthesis. As a template, we used the acpP sequence spanning −40 to +51 relative to the AUG start codon fused to a gfp reporter gene (acpP::gfp). This construct was in vitro transcribed, preincubated with different ASOs at different ratios and subsequently translated in vitro. Water was used as a negative control.
For the generation of target RNA::gfp fusion constructs, we used a previously established protocol ([Popella et al. 2022]) and the oligonucleotides JVO-19760/JVO-19761 (Supplemental Table S1) to amplify the genomic region spanning nucleotides –40 to +51 relative to the translational start codon of acpP. The sense oligonucleotide was fused to a T7 promoter sequence for subsequent transcription of the final fusion construct in vitro. The antisense oligonucleotide contained a 30 nt overlapping region with gfp for subsequent fusion PCR with full-length gfp (pXG-10; JVO-19762/JVO-19763) (Supplemental Table S1). The PCR products were purified with NucleoSpin Gel and PCR Clean-up (Macherey-Nagel) according to the manufacturer's instructions, and DNA concentration was quantified with a NanoDrop spectrophotometer (A260 nm).
PCR products were used for T7 RNA polymerase-driven transcription in vitro using the MEGAscript T7 kit (Ambion/Thermo Scientific), according to the manufacturer's instructions and analogous to our previous publication ([Popella et al. 2022]). The concentration of the RNA solution was quantified with Qubit (Fisher Scientific), and the expected product size and RNA integrity were verified on a 6% PAA, 7 M urea gel.
For in vitro translation of target RNA::gfp fusion constructs, the PURExpress In Vitro Protein Synthesis Kit (New England Biolabs, E6800L) was used as described previously ([Popella et al. 2022]). Briefly, the final volume of each in vitro translation reaction was set to 10 µL. One microliter of different concentrations of ASOs ranging from 10 to 0.625 µM was added to 1 µL of in vitro transcribed heat-denatured RNA (1 µM) to adjust the final RNA concentration to 100 nM. The mixtures were preincubated at 37°C for 5 min. Then 4 µL of Solution A and 3 µL of Solution B were added to the preannealed mixtures. After 2 h at 37°C, protein samples were denatured in 1× reducing protein loading buffer (62.6 mM Tris–HCl pH 6.8, 2% SDS, 0.1 mg/mL bromphenol blue, 15.4 mg/mL DTT, 10% glycerol) at 95°C for 5 min.
To visualize in vitro translated proteins, samples were separated on SDS-PAA (12% PAA) gels, with subsequent semi-dry western blot transfer on nitrocellulose membranes. Membranes were blocked with 10% skim milk (in 1× TBS-T) for 1 h and probed with anti-GFP antibody (1:1000; Sigma-Aldrich) in 5% skim milk (in 1× TBS-T) overnight at 4°C. After washing in 1× TBS-T and incubation with an HRP-conjugated secondary antibody (1:5000; Thermo Scientific) in 1× TBS-T, the membrane was incubated with a developing solution kit (Amersham ECL Select Western Blotting Detection Reagent), and protein levels were detected using an ImageQuant LAS 500 (GE Healthcare Life Sciences). Images were processed and band intensities quantified using ImageJ. Protein bands were normalized to the water control.

[3] = test system: Salmonella; assay: Salmonella growth assay (MIC); assay type: cell-based, Salmonella enterica serovar Typhimurium strain SL1344; details: for Antibacterial activity (MIC): ASO conjugated to the KFF carrier peptide, ~10^5 cfu/mL in noncation-adjusted MHB, 37°C, OD600, highest concentration 10 µM; for Antibacterial activity (MIC) / Effect of KFF-ASO conjugates on Salmonella growth (in words): 24 h; for Effect of KFF-ASO conjugates on Salmonella growth (in words): up to 10 µM; for Effect of KFF-ASO conjugates on Salmonella growth (in words) / Bactericidal concentration: KFF conjugates; for Bactericidal concentration: spotting of ASO-treated bacterial samples at 24 h
Description: Next, we sought to compare the antibacterial efficacy of the ASOs upon delivery into bacterial cells with a KFF carrier peptide. Therefore, we measured the growth kinetics of Salmonella in the presence of the ASOs for 24 h (Fig. 4). Because we have previously shown that the KFF peptide has a minimum inhibitory concentration (MIC) of >10 µM ([Popella et al. 2021]), we choose 10 µM as a cutoff point in our experiments. […] Spotting of the ASO-treated bacterial samples at 24 h confirmed that PMO and PNA were bactericidal at 10 and 1.25 µM, respectively (Supplemental Fig. S6B).
An overnight bacterial cell culture was diluted 1:100 in fresh MHB and grown to OD600 0.5. The culture was then diluted to ∼10^5 cfu/mL in noncation-adjusted MHB. Subsequently, 190 µL bacterial solution was dispensed into a 96-well plate (Thermo Fisher Scientific) along with 10 µL of a 200 µM solution of the ASOs. Growth was monitored by measuring the OD at 600 nm every 20 min in a Synergy H1 plate reader (Biotek) with continuous double-orbital shaking (237 cpm) at 37°C for 24 h.

Substance: DNA-PTO: phosphorothioate-modified DNA 10mer ASO, sequence CTCATACTCT, targeting acpP −5 to +5 (DNA, all phosphorothioate, methylation of C not given here)
- Tm of ASO:mRNA complexes [1]: 25.8 °C and 25.8 ± 0.7 °C
- Inhibition of in vitro translation of acpP::gfp (in words) [2]: did not inhibit protein synthesis
- Antibacterial activity (MIC) [3]: >10 µM
- Effect of KFF-ASO conjugates on Salmonella growth (in words) [3]: slight growth retardation was observed at 5 and 10 µM

Substance: LNA: 2′–4′-locked RNA 10mer ASO, sequence CTCATACTCT, targeting acpP −5 to +5 (all LNA, backbone and methylation of C not given here)
- Tm of ASO:mRNA complexes [1]: 87.4 °C and 87.4 ± 2 °C
- Inhibition of translation in vitro [2]: +++
- Inhibition of in vitro translation of acpP::gfp (in words) [2]: substantially blocking in vitro translation of acpP::gfp at 1.25× molar excess
- Antibacterial activity (MIC) [3]: >10 µM
- Effect of KFF-ASO conjugates on Salmonella growth (in words) [3]: slight growth retardation was observed at 5 and 10 µM

Substance: PMO: phosphorodiamidate morpholino 10mer ASO, sequence CTCATACTCT, targeting acpP −5 to +5 (all phosphorodiamidate morpholino (PMO))
- Tm of ASO:mRNA complexes [1]: 41.8 °C and 41.8 ± 0.6 °C
- Inhibition of translation in vitro [2]: ++
- Inhibition of in vitro translation of acpP::gfp (in words) [2]: less pronounced
- Antibacterial activity (MIC) [3]: 10 µM
- Bactericidal concentration [3]: 10 µM

Substance: PNA: peptide nucleic acid 10mer ASO, sequence CTCATACTCT, targeting acpP −5 to +5 (all peptide nucleic acid (PNA))
- Tm of ASO:mRNA complexes [1]: 44.3 °C and 44.3 ± 1.1 °C
- Inhibition of translation in vitro [2]: +++
- Inhibition of in vitro translation of acpP::gfp (in words) [2]: substantially blocking in vitro translation of acpP::gfp at 1.25× molar excess
- Antibacterial activity (MIC) [3]: 1.25 µM
- Bactericidal concentration [3]: 1.25 µM

Substance: RNA-F: 2′-fluorinated RNA 10mer ASO, sequence CTCATACTCT, targeting acpP −5 to +5 (all 2'-fluoro, backbone and T or U not given here)
- Inhibition of translation in vitro [2]: ++
- Inhibition of in vitro translation of acpP::gfp (in words) [2]: less pronounced
- Antibacterial activity (MIC) [3]: >10 µM
- Effect of KFF-ASO conjugates on Salmonella growth (in words) [3]: slight growth retardation was observed at 5 and 10 µM

Substance: RNA-MOE: 2′-methoxyethylated RNA 10mer ASO, sequence CTCATACTCT, targeting acpP −5 to +5 (all 2'-MOE, backbone and methylation of C not given here)
- Inhibition of translation in vitro [2]: +++
- Inhibition of in vitro translation of acpP::gfp (in words) [2]: substantially blocking in vitro translation of acpP::gfp at 1.25× molar excess
- Antibacterial activity (MIC) [3]: >10 µM
- Effect of KFF-ASO conjugates on Salmonella growth (in words) [3]: slight growth retardation was observed at 5 and 10 µM

Substance: RNA-OMe: 2′-methylated RNA 10mer ASO, sequence CTCATACTCT, targeting acpP −5 to +5 (all 2'-O-methyl, backbone and T or U not given here)
- Tm of ASO:mRNA complexes [1]: 48.3 °C and 48.3 ± 0.8 °C
- Inhibition of in vitro translation of acpP::gfp (in words) [2]: less pronounced
- Antibacterial activity (MIC) [3]: >10 µM
- Effect of KFF-ASO conjugates on Salmonella growth (in words) [3]: lacked any antibacterial activity
